# Laboratory results taken from PMC7305224, “Mutually stabilizing interactions between proto-peptides and RNA” (Nature Communications, 2020).
# “Also recorded” adds a separate entry of the source. Non-standard residues stand in square brackets, D forms with d. Residues, ends and D or L forms follow the SMILES beside them. Dab = NCC[C@H](N)C(=O)O; Lac = C[C@H](O)C(=O)O
# What was measured:
# [1] = cited from earlier work
# Excerpt: Several lines of evidence support the importance of electrostatic interactions in the observed stabilizations of RNA duplexes. First, as would be expected, higher numbers of cationic residues present in the depsipeptide/peptide led to greater increases in RNA duplex Tm (Table 1, entries #1–7). Second, the effect of His-containing depsipeptides was pH-dependent (Figs. 2d and 3c, d), as expected based on the His pKa of ~6.0. […] The ineffectiveness of this sequence is probably due to the l ...
# RNA duplex 1 = assay: CD analysis of RNA duplex with peptides/depsipeptides; type: binding; settings: for changes in CD spectra of the RNA duplex upon addition: RNA duplex 5 µM, peptide/depsipeptide 0–10 µM, MES-TEA buffer (60 mM)
# Excerpt: The gel was cropped at the edges for clarity. […] […] Red and blue colors of the filled circles correspond to curves of the same color in panel (c). […] […] Scans were from 320 nm to 220 nm with a bandwidth of 5 nm, data pitch of 0.2 nm, and scan rate of 50 nm/min with three accumulations. […] Data were collected in independent triplicates and the data were averaged. Finally, data were smoothed and plotted using Matlab.
# [2] = tested on: RNA duplex 1 (5′-rCrGrCrUrArArArUrCrG-3′ & 5′-rCrGrArUrUrUrArGrCrG-3′); assay: RNA thermal denaturation (Tm) by UV hyperchromicity at 260 nm with synthetic peptides/depsipeptides, RNA duplex 1; type: binding; settings: 100 mM NaCl
# Protocol: Each sample contained RNA duplex 1 (5′-rCrGrCrUrArArArUrCrG-3′ and 5′-rCrGrArUrUrUrArGrCrG-3′, 2.5 μM strand) and peptide/depsipeptide (100 μM) in buffered solution (10 mM phosphate, 100 mM NaCl, pH 7.0 or 10 mM acetate, 100 mM NaCl, pH 5.0). a Structures of depsipeptides used to systematically characterize cationic side chain effects on RNA duplex stability. Lactic acid residues are highlighted. Ac acetyl, Aba acetamidobenzoic acid, which was appended to the N-terminus to increase UV absorbance. b Structures of the Fmoc-didepsipeptide building blocks used for solid-phase synthesis of depsipeptide sequences. Fmoc fluorenylmethoxycarbonyl. c Comparative effects of oligo-didepsipeptide sequences 2–6 and analogous oligo-dipeptide and on the Tm of the RNA duplex (number of independent measurements: n = 3 for Arg and Lys sequences; n = 2 for His and Dab sequences; n = 4 for Orn sequences). The shaded areas correspond to the mean ± SD Tm measured for the RNA duplex alone (n = 16 independent measurements). Data are shown as a scatter plot with mean ± SD. d Comparative effects on RNA duplex Tm of depsipeptide sequences containing a single backbone ester (number of independent measurements: n = 3 for Arg; n = 2 for His, Orn, and Dab; n = 4 for Lys), relative to RNA duplex alone (n = 16 independent measurements). Data are shown as a scatter plot with mean ± SD. e To assess the impact of different cationic side chains on depsipeptide degradation rates, depsipeptides 7–11 (40 μM) were incubated at 37 °C in buffer (100 mM HEPES, 10 mM NaCl, pH 7.3). After 5 min, the reactions were quenched by the addition of 3% TFA, and samples were analyzed by HPLC.
# (§1) Prior to Tm analyses, RNA samples were annealed in the appropriate buffer by heating to 75 °C and slowly cooling to room temperature. Depsipeptide/peptide was added to the annealed RNA and incubated at 4 °C for 20 min prior to carrying out the analysis. For analyses involving dry-down reaction mixtures, the Tm was determined by monitoring fluorescence increase upon melting of a fluorophore/quencher-labeled RNA duplex (5′-rCrGrArUrUrUrArGrCrG-/3IABkFQ/-3′ and 3′-rGrCrUrArArArUrCrGrC-FAM-5′) using a BioRad CFX Connect rtPCR instrument with a heating ramp of 1 °C/min and 20 μL final sample volumes. For analyses involving pure, synthetic compounds, the Tm of the RNA was determined by monitoring UV hyperchromicity at 260 nm using a Varian Cary Bio-100 spectrophotometer, with a heating ramp of 1 °C/min and 0.5- or 1-cm pathlength cells. The following RNA sequences were used: RNA duplex 1 = 5′-rCrGrCrUrArArArUrCrG-3′ and 5′-rCrGrArUrUrUrArGrCrG-3′; RNA duplex 2 = 5′-rArArArArUrUrUrArUrArUrUrArUrUrA-3′ and 5′-rUrArArUrArArUrArUrArArArUrUrUrU-3′; RNA duplex 3 = 5′-rArArCrGrUrArUrArCrGrUrU-3′ (palindromic); and H26a RNA = 5′-rArUrGrArGrUrArArCrCrGrUrArArGrGrUrGrArArArUrU-3′. RNA was present in each assay at a final concentration of 2.5 μM of the folded structure (2.5 μM each strand for duplex 1 and duplex 2, 5.0 μM palindromic strand for duplex 3, 2.5 μM strand for H26a RNA). Tm values were determined by nonlinear fitting of the melting curves using GraphPad Prism 8.2.1 for duplex 1 and H26a, or by finding the maximum of the first derivative of the curve using the Varian Cary Bio-100 software for duplex 2 and duplex 3.
# [3] = tested on: H26a RNA (5′-rArUrGrArGrUrArArCrCrGrUrArArGrGrUrGrArArArUrU-3′); assay: RNA thermal denaturation (Tm) by UV hyperchromicity, H26a RNA hairpin; type: binding
# Protocol: as §1, with “3. Both methods of determining the Tm gave similar values for a given denaturation curve.” for “3.”
# [4] = tested on: RNA duplex 3 (5′-rArArCrGrUrArUrArCrGrUrU-3′, palindromic); assay: RNA thermal denaturation (Tm) by UV hyperchromicity, RNA duplex 3; type: binding
# Protocol: as §1, with “3. Both methods of determining the Tm gave similar values for a given denaturation curve.” for “3.”
# [5] = tested on: RNA duplex 2 (5′-rArArArArUrUrUrArUrArUrUrArUrUrA-3′ and 5′-rUrArArUrArArUrArUrArArArUrUrUrU-3′); assay: RNA thermal denaturation (Tm) by UV hyperchromicity, RNA duplex 2; type: binding
# Protocol: as §1, with “3. Both methods of determining the Tm gave similar values for a given denaturation curve.” for “3.”
# [6] = tested on: 10-mer RNA duplex (5′-6-FAM-rCrGrCrUrArArArUrCrG-3′ & 5′-rCrGrArUrUrUrArGrCrG-3IABkFQ-3′); assay: RNA duplex Tm by rtPCR fluorescence with dry-down reaction mixtures; type: binding; settings: not subjected to the dry-down reaction (non-dried)
# Excerpt: Accordingly, we determined the effect of cationic proto-peptides on RNA duplex stability by monitoring changes in the melting temperature (Tm) of a short 10mer RNA duplex in the presence or absence of individual proto-peptide samples (Fig. 2). The complementary RNA strands were 5′- or 3′-labeled with either a fluorophore or a quencher so that the degree of RNA hybridization could be monitored by fluorescence in rtPCR instrumentation (Supplementary Fig. 9). […] For the Tm measurements, the proto-peptide samples were diluted to a final concentration of 25 mM (based on the amount of cationic amino acid used at the start of the dry-down) and mixed with the RNA duplex (2.5 μM each strand).
# Dry-down reaction products were dissolved in deionized water to give a 100 mM stock solution based on the amount of monomers used at the start of the dry-down. […]
# Prior to Tm analyses, RNA samples were annealed in the appropriate buffer by heating to 75 °C and slowly cooling to room temperature. […] For analyses involving dry-down reaction mixtures, the Tm was determined by monitoring fluorescence increase upon melting of a fluorophore/quencher-labeled RNA duplex (5′-rCrGrArUrUrUrArGrCrG-/3IABkFQ/-3′ and 3′-rGrCrUrArArArUrCrGrC-FAM-5′) using a BioRad CFX Connect rtPCR instrument with a heating ramp of 1 °C/min and 20 μL final sample volumes.
compound,measurement,setting,value
"N[C@@H](Cc1c[nH]cn1)C(=O)O [His, histidine]",pKa,"[1]; His side chain, no reference given",~ 6.0
CC(=O)N[C@@H](Cc1ccc(O)cc1)C(=O)NCC(=O)N[C@@H](C)C(=O)N[C@@H](CCN)C(=O)N[C@@H](CCCCN)C(=O)N[C@@H](C)C(=O)N[C@@H](CCN)C(=O)N[C@@H](CCCCN)C(=O)N[C@@H](C)C(=O)N[C@@H](CCN)C(=O)N[C@@H](CCCCN)C(N)=O (Ac-YGA[Dab]KA[Dab]KA[Dab]K-NH2),changes in CD spectra of the RNA duplex upon addition,RNA duplex 1,physical association
"NCC(N)C(=O)O (stereo not drawn) [Dpr, 2,3-diaminopropionic acid]",pKa of side chain β-amine,[1]; when incorporated into oligomeric sequences,~ 6.3
CC(=O)N[C@@H](Cc1ccc(O)cc1)C(=O)NCC(=O)N[C@@H](C)C(=O)N[C@@H](CCN)C(=O)N[C@@H](CCCCN)C(=O)N[C@@H](C)C(=O)N[C@@H](CCN)C(=O)N[C@@H](CCCCN)C(N)=O [Ac-Tyr-Gly-Ala-Dab-Lys-Ala-Dab-Lys-NH2] (Ac-YGA[Dab]KA[Dab]K-NH2),changes in CD spectra of the RNA duplex upon addition,RNA duplex 1,physical association
"CC(=O)N[C@@H](Cc1ccc(O)cc1)C(=O)NCC(=O)N[C@@H](C)C(=O)N[C@@H](CCN)C(=O)N[C@@H](CCCCN)C(=O)O[C@@H](C)C(=O)N[C@@H](CCN)C(=O)N[C@@H](CCCCN)C(=O)O[C@@H](C)C(=O)N[C@@H](CCN)C(=O)N[C@@H](CCCCN)C(=O)O[C@@H](C)C(=O)N[C@@H](CCN)C(=O)N[C@@H](CCCCN)C(N)=O [compound 14, Ac-Tyr-Gly-Ala-Dab-Lys-lac-Dab-Lys-lac-Dab-Lys-lac-Dab-Lys-NH2] (Ac-YGA[Dab]K[Lac][Dab]K[Lac][Dab]K[Lac][Dab]K-NH2)",changes in CD spectra of the RNA duplex upon addition,RNA duplex 1,changes were observed in the CD spectra
same,Kd,"RNA duplex 1; change in CD signal at 266 nm, one-site binding model, RNA duplex 1 5 μM each strand, depsipeptide 0–10 μM, MES-TEA buffer pH 6, 5 °C, independent triplicates averaged, read-out: apparent Kd",~3000 nM
same,RNA duplex 1 Tm,"[2]; observed Tm with peptide/depsipeptide 100 µM, pH 7.0, 10 mM phosphate, RNA alone 43.8 ± 0.4, mean ± SD of 2-4 independent experiments",52.4 ± 1.5 °C
same,RNA duplex 1 ΔTm,"[2]; peptide/depsipeptide 100 μM, RNA 2.5 μM each strand, 10 mM phosphate, pH 7.0, vs RNA alone at matched pH, mean of 2–4 replicates",8.6 °C
same,H26a RNA Tm,"[3]; observed Tm with peptide/depsipeptide 100 µM, pH 7.0, RNA alone 53.4 ± 0.5, mean ± SD of 2-4 independent experiments",63.8 ± 0.6 °C
same,H26a RNA ΔTm,"[3]; peptide/depsipeptide 100 μM, RNA 2.5 μM strand, pH 7.0, 10 mM phosphate, 100 mM NaCl, mean of 2–4 replicates",10.4 °C
same,RNA duplex 3 Tm,"[4]; observed Tm with peptide/depsipeptide 100 µM, pH 7.0, RNA alone 48.6 ± 0.7, mean ± SD of 2-4 independent experiments",58.6 ± 0.7 °C
same,RNA duplex 3 ΔTm,"[4]; peptide/depsipeptide 100 μM, 5.0 μM palindromic strand, pH 7.0, 10 mM phosphate, 100 mM NaCl, mean of 2–4 replicates",10.0 °C
same,RNA duplex 2 Tm,"[5]; observed Tm with peptide/depsipeptide 100 µM, pH 7.0, RNA alone 33.7 ± 0.7, mean ± SD of 2-4 independent experiments",42.8 ± 0.6 °C
same,RNA duplex 2 ΔTm,"[5]; peptide/depsipeptide 100 μM, RNA 2.5 μM each strand, pH 7.0, 10 mM phosphate, 100 mM NaCl, mean of 2–4 replicates",9.1 °C
CC(=O)N[C@@H](Cc1ccc(O)cc1)C(=O)NCC(=O)N[C@@H](C)C(=O)N[C@@H](CCN)C(=O)N[C@@H](CCCCN)C(=O)N[C@@H](C)C(=O)N[C@@H](CCN)C(=O)N[C@@H](CCCCN)C(=O)N[C@@H](C)C(=O)N[C@@H](CCN)C(=O)N[C@@H](CCCCN)C(=O)N[C@@H](C)C(=O)N[C@@H](CCN)C(=O)N[C@@H](CCCCN)C(N)=O (Ac-YGA[Dab]KA[Dab]KA[Dab]KA[Dab]K-NH2),changes in CD spectra of the RNA duplex upon addition,RNA duplex 1; listed as Ac-Tyr-Gly-(Ala-Dab-Lys)4-NH2,physical association; also recorded: changes were observed in the CD spectra
CC(=O)N[C@@H](Cc1ccc(O)cc1)C(=O)NCC(=O)N[C@@H](C)C(=O)N[C@@H](CCN)C(=O)N[C@@H](CCCCN)C(N)=O [Ac-Tyr-Gly-Ala-Dab-Lys-NH2] (Ac-YGA[Dab]K-NH2),changes in CD spectra of the RNA duplex upon addition,RNA duplex 1,physical association
"NCCCCC(O)C(=O)O (stereo not drawn) [hah, 2-hydroxy-6-aminohexanoic acid]","effect on RNA duplex Tm, non-dried controls",[6],no effect on the Tm
"NCCC(O)C(=O)O (stereo not drawn) [hab, 2-hydroxy-4-aminobutyric acid]","effect on RNA duplex Tm, non-dried controls",[6],no effect on the Tm
